Measured values: ChEMBL document CHEMBL1201862, “PubChem BioAssay data set” (2004)
Calls of active or inactive are those of the source.

Assays:
[1] = molecular target: T1, Sentrin-specific protease 8 (Homo sapiens, UniProt Q96LD8); type: functional
T1 sequence (Q96LD8 whole entry): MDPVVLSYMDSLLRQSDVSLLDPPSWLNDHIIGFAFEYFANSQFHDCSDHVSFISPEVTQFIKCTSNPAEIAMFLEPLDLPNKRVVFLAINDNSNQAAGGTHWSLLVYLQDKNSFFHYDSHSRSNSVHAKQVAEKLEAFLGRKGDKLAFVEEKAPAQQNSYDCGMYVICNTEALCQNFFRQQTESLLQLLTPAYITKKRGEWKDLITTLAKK

[2] = molecular target: T1, Sentrin-specific protease 8; type: functional; remark: listed apart in the source
[3] = molecular target: Kappa-type opioid receptor (Homo sapiens, UniProt P41145); type: functional
Kappa-type opioid receptor, sequence (P41145 whole entry): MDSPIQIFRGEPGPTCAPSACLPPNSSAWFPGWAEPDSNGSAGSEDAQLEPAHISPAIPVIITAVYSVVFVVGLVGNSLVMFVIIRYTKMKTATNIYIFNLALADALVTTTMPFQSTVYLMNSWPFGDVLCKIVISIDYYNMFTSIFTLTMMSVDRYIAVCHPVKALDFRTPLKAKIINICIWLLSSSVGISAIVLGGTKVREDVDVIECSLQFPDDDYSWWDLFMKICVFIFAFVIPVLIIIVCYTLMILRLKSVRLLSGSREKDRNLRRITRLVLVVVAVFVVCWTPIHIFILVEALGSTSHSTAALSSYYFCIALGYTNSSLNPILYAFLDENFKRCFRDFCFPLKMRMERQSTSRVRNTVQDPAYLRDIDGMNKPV

[4] = HeLa cell cytotoxicity, dose response, cytotoxicity control for MgcRacGAP inhibitor project (AID 624300); type: functional
[5] = tested on: HeLa; assay: Cytotoxicity counterscreen assay for transcriptional activators of heat shock protein 70 (Hsp70). [Related pubchem assays: 1203, 1252 ]; type: functional; conditions: Homo sapiens;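 also: cells exposed to compound for 16 hours before readout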
[6] = growth suppression of PTEN-null colon cells, dose response, cell-based, HCT116 PTEN knockout (AID 1047); type: functional;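 also: HCT116 colon tumor cells with PTEN knocked out; cells exposed to compound for 60 hours before readout; potency for loss of cell viability measured by luminescence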
[7] = growth suppression of beta-catenin-knockout colon cells, dose response, cell-based, HCT116, human colon tumor (AID 1045); type: functional;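 also: HCT116 colon tumor cells with beta catenin knocked out; cells exposed to compound for 60 hours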
[8] = molecular target: Photoreceptor-specific nuclear receptor (Homo sapiens, UniProt Q9Y5X4); type: functional, cell-based;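 also: CHO-S cells with Gal4-NCOR and VP16-NR2E3 two-hybrid luciferase reporter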
Photoreceptor-specific nuclear receptor, sequence (Q9Y5X4 whole entry, the tested form may be a part): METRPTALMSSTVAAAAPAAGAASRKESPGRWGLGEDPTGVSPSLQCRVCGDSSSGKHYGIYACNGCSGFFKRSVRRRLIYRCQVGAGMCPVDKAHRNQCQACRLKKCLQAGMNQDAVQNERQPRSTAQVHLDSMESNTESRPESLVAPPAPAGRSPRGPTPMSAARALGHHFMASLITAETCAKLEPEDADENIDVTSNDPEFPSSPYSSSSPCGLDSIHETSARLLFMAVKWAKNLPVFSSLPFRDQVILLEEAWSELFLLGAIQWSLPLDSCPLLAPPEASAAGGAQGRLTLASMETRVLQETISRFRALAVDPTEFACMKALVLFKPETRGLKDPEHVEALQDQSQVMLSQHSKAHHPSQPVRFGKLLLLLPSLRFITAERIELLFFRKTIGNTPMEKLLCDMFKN

[9] = inhibitors of PGC1a acetylation in cells, dose response, cell-based, cherry-picked samples (AID 720514); type: functional;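 also: potency may reflect raised or lowered acetylation signal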
[10] = Luminescence-based dose response cell-based high throughput screening assay for cytotoxic compounds using the IEC-6 intestinal epithelial cell line. [Related pubchem assays: 1858 (Summary AID.), 1825 (Counterscreen.), 1907 (Confirmation screen.)]; type: functional
[11] = molecular target: Beta-galactosidase (Escherichia coli, UniProt Q8VNN2); type: functional
Beta-galactosidase, sequence (Q8VNN2 whole entry): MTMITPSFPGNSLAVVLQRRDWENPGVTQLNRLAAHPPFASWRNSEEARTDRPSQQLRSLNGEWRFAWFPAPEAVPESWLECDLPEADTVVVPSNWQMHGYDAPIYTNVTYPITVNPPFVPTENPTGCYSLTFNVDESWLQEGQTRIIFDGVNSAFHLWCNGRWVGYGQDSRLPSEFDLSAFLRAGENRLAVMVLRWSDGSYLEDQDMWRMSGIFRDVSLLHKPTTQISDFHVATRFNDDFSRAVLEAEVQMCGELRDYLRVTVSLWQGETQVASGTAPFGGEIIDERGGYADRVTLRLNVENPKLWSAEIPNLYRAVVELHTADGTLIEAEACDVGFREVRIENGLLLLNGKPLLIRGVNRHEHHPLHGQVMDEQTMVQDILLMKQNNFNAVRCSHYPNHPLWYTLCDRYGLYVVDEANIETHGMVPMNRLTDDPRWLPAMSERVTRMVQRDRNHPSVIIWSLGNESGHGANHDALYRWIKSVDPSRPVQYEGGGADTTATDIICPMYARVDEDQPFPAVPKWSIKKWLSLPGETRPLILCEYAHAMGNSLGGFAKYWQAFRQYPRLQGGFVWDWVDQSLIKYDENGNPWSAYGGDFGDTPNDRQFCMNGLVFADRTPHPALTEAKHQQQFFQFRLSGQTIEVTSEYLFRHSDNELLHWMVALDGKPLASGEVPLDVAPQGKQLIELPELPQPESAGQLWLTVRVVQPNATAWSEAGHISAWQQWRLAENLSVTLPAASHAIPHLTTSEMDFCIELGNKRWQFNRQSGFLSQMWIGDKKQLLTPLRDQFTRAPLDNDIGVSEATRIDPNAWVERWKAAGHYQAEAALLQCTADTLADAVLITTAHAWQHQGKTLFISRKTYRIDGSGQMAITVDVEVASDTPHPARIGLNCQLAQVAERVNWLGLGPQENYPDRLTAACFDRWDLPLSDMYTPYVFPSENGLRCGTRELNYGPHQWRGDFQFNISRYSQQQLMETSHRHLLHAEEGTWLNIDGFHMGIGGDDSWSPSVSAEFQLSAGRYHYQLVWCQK

[12] = Luminescence Cell-Based Dose Confirmation HTS to Identify Inhibitors of Platelet Dense Granule Release. [Related pubchem assays: 1663 (Primary HTS), 1678 (Summary of Project)]; type: functional
[13] = molecular target: Sphingosine 1-phosphate receptor 2 (Homo sapiens, UniProt O95136); assay: Dose Response Cell Based Assay for Antagonists of the S1P2 Receptor. [Related pubchem assays: 856, 736 ]; type: functional
Sphingosine 1-phosphate receptor 2, sequence (O95136 whole entry): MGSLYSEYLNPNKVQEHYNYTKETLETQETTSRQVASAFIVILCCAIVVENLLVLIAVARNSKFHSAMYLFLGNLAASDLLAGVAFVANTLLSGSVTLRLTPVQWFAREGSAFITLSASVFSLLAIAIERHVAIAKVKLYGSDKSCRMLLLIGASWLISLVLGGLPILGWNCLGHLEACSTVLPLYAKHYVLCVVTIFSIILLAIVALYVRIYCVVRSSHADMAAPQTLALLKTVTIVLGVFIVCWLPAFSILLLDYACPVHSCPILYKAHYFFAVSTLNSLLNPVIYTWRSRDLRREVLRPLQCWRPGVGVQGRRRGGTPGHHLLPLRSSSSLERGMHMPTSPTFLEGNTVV

[14] = tested on: Vero; assay: cells; type: functional; conditions: Chlorocebus sabaeus
[15] = molecular target: T2, Zinc finger protein mex-5 (Caenorhabditis elegans, UniProt Q9XUB2); assay: MEX-5/TCR-2 RNA interaction inhibitors, dose response, biochemical, C. elegans, fluorescence polarization (AID 1960)
T2 sequence (Q9XUB2 whole entry): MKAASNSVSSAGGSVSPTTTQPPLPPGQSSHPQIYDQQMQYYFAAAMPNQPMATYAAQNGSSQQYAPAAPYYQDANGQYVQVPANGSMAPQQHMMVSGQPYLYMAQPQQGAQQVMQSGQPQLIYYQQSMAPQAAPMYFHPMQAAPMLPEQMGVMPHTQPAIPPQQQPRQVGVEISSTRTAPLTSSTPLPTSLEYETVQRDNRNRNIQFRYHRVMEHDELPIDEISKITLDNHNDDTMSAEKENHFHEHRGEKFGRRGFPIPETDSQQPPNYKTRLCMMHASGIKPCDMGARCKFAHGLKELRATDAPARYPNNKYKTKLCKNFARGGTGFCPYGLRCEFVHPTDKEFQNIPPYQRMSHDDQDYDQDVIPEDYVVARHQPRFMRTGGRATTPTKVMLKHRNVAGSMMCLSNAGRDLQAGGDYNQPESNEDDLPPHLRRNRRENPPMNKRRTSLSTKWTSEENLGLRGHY

[16] = molecular target: T3, Histone-lysine N-methyltransferase NSD2 (Homo sapiens, UniProt O96028); type: biochemical
T3 sequence (O96028 whole entry): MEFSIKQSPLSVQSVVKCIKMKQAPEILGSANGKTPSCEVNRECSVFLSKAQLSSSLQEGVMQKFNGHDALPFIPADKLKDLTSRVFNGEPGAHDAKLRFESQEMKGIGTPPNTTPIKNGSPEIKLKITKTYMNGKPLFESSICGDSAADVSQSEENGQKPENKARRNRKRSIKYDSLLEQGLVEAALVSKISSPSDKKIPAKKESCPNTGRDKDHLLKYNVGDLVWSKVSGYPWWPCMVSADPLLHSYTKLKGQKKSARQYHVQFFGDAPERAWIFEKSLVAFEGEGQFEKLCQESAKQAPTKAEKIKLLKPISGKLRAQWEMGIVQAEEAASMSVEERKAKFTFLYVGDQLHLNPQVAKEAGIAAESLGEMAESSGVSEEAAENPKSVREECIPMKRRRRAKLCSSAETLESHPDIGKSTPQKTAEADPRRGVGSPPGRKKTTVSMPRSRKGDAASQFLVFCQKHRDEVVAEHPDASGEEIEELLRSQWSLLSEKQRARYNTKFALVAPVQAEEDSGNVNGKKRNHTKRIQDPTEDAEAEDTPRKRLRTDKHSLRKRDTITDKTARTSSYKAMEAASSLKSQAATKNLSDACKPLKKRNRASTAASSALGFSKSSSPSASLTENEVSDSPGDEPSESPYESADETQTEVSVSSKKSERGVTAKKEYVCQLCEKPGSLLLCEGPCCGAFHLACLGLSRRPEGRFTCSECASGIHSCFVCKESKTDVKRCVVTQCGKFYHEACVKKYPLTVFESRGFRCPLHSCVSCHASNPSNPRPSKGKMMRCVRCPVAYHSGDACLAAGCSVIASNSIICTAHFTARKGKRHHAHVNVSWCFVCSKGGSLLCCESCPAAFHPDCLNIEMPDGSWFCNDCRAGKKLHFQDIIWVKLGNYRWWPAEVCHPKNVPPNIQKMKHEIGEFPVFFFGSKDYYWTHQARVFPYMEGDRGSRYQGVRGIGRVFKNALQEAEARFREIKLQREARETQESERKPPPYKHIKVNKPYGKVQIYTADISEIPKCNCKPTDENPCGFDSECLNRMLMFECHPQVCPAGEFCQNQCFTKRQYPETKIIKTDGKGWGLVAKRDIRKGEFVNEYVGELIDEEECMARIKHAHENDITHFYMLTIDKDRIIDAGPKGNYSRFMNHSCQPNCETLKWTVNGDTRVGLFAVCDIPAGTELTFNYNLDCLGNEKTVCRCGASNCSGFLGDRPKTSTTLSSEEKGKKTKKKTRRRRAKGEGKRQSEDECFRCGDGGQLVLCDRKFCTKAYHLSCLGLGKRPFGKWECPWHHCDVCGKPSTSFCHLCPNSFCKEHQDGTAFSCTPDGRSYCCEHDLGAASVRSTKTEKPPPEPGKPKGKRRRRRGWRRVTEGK

[17] = molecular target: Serine/threonine-protein phosphatase (Homo sapiens, UniProt Q9BPW0); assay: PP5 phosphatase inhibitors, dose response, biochemical, fluorescence (AID 2395)
Serine/threonine-protein phosphatase, sequence (Q9BPW0 whole entry): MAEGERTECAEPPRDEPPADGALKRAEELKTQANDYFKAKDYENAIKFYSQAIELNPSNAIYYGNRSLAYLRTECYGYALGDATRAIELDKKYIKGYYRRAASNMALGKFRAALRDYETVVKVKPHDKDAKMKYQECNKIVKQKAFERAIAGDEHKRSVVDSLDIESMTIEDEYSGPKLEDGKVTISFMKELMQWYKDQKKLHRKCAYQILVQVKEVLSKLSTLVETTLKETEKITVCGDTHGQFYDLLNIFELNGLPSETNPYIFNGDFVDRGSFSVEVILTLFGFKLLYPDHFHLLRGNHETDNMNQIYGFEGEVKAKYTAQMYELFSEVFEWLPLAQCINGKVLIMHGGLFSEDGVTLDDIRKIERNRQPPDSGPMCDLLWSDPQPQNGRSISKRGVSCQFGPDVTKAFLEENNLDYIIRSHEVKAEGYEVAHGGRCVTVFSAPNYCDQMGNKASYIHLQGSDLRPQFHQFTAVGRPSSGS

Nc1ccc(N2CCCCC2)c2nonc12
active: IC50 [1] 1060 nM | IC50 [2] 3280 nM

COc1ccc(NC(=O)/C(Cl)=C(/Cl)[S+]([O-])Cc2ccccc2)cn1 (configuration not stated)
inactive: EC50 [11] > 31500 nM
active: IC50 [3] 7100 nM | CC50 [4] 24100 nM | CC50 [5] 1750 nM | EC50 [6] 197 nM | EC50 [7] 185 nM | IC50 [8] 920 nM | AC50 [9] 1650 nM | IC50 [10] 1270 nM | EC50 [12] 6340 nM | IC50 [13] 942 nM

Cc1ccc(S(=O)(=O)/N=C2\C=C(Nc3cccc(C(=O)O)c3)C(=O)c3ccccc32)c(C)c1
12300 nM (not active): IC50 [17]
active: CC50 [14] > 25000 nM | EC50 [15] 31700 nM | AC50 [16] 255 nM
